The values that follow come from patent US20130225404A1, “PESTICIDAL COMBINATIONS” (SYNGENTA PARTICIPATIONS AG, priority 2010, published 2013).

This assay relates to rice plants. The assay is described as follows: Safening of rice grown from treated seeds against clodinafop herbicide, greenhouse tray test. It is filed as in vivo. The note with it: rice seed treatment; for Av. shoot weight: average dry shoot weight five weeks after the clodinafop treatment; for Av. plant height: determined five weeks after the clodinafop treatment. How it is done: Various batches of treated rice seeds were sown in soil contained in trays (0.0425 m^2) at a rice density of 120 kg/ha and their growth monitored in a green house (at 25° C. during the day and 23° C. during the nght). The amounts of the active ingredients, i.e. thiamethoxam (Cruiser 350FS) and N-(2-methoxybenzoyl)-4-[(methylaminocarbonyl)amino]benzene-sulfonamide (safener) used for the rice seed treatment are indicated in the table below. The trays were flooded with water three days after sowing. Nine days after sowing the rice plants were sprayed with the herbicide clodinafop in an amount equal to 100 g/ha. The average plant height and the average dry shoot weight were determined five weeks after the clodinafop treatment.
A similar procedure was performed on untreated seeds except that the clodinafop treatment was omitted (control).
The same procedure as descrbed above was repeated except that the rice plants were treated with the herbicide clodinafop fifteen days after sowing.

[1] abbreviates: clodinafop 100 g/ha sprayed 9 days after sowing.
Setting [2] is: clodinafop 100 g/ha sprayed 15 days after sowing.

SMILES strings stand for the structures.

Compound `CNC(=O)Nc1ccc(S(=O)(=O)NC(=O)c2ccccc2OC)cc1` [A, N-(2-methoxybenzoyl)-4-[(methylaminocarbonyl)amino]benzene-sulfonamide] yielded an Av. shoot weight under setting [1] of 230 mg and an Av. shoot weight under setting [2] of 400 mg. Moreover, the Av. plant height runs as follows: under setting [1], 24 cm; under setting [2], 35 cm.

Under setting [1], `CNC(=O)Nc1ccc(S(=O)(=O)NC(=O)c2ccccc2OC)cc1` [C, N-(2-methoxybenzoyl)-4-[(methylaminocarbonyl)amino]benzene-sulfonamide] returned an Av. shoot weight of 300 mg and an Av. plant height of 30 cm. Besides, under setting [2], the Av. shoot weight was found to be 510 mg and the Av. plant height came to 40 cm.
